Reference: publication PMC8514817, “De Novo Design of Antimicrobial Peptides With a Special Charge Pattern and Their Application in Combating Plant Pathogens” (Frontiers in Plant Science, 2021)
Like-named read-outs stand apart in the source and are kept apart here.

What was measured:
[1] = tested on: Ralstonia solanacearum (Rs); format: cell-based; settings: at the highest peptide concentration (32μg/ml) tested; data not shown; before the tests in minimal media
Eco = format: cell-based, Escherichia coli
Rs = format: cell-based, Ralstonia solanacearum; settings: crude peptide, 5 μl of 64 μg/ml in 20 μl, bacteria OD600=0.4 in water, 2 h, confocal microscopy
[2] = tested on: Pectobacterium carotovorum subsp. carotovorum (Pcc); assay: Plant disease response, Pcc infection of tomato L390 leaves; format: in vivo, Solanum lycopersicum; settings: for size of disease lesions caused by Pcc, tomato: crude peptide 16 μg/ml mixed with Pcc, detached wounded tomato L390 leaves, 16–28 h post-inoculation, vs water
[3] = tested on: Pectobacterium carotovorum subsp. carotovorum (Pcc); assay: Plant disease response, Pcc infection of Arabidopsis Col0 leaves; format: in vivo, Arabidopsis thaliana; settings: crude peptide 16 μg/ml mixed with Pcc, wounded leaves of Arabidopsis Col0, 16–28 h post-inoculation, vs water
Botrytis cinerea (Bc) [4] = assay: Plant disease response, Bc infection of tomato L390 leaves; format: in vivo, Solanum lycopersicum; settings: crude peptide 16 μg/ml mixed with Bc spores (10^4 spores/ml), 47–70 h post-inoculation, vs water
Botrytis cinerea (Bc) [5] = assay: Plant disease response, Bc infection of Arabidopsis Col0 leaves; format: in vivo, Arabidopsis thaliana; settings: for development of the lesion caused by Bc, Arabidopsis: crude peptide 16 μg/ml mixed with Bc spores (10^5 spores/ml), Arabidopsis Col0 leaves, 47–70 h post-inoculation, vs water
Eco DH5α [6] = settings: 48 h
Xev Xvt28 [7] = settings: 48 h
Xoo Xoo28 [8] = settings: Table 4, rich medium, up to 32 μg/ml; for MIC: 48 h, no visible growth; for MBC: spotted on rich agar 48 h, no colony
Pcc = settings: up to 32 μg/ml
Pst DC3000 = settings: Table 4, rich medium, up to 32 μg/ml; for MIC: 48 h, no visible growth; for MBC: spotted on rich agar 48 h, no colony
Pss B728a = settings: Table 4, rich medium, up to 32 μg/ml; for MIC: 48 h, no visible growth; for MBC: spotted on rich agar 48 h, no colony
Ech = settings: up to 32 μg/ml
Rs Pss4 = settings: Table 5, minimal medium, crude peptides, up to 32 μg/ml; for MIC: 96 h; for MBC/MFC: spotted on rich agar 48 h
Rs Pss190 = settings: Table 5, minimal medium, crude peptides, up to 32 μg/ml; for MIC: 96 h; for MBC/MFC: spotted on rich agar 48 h
Bc = settings: for MIC / MBC/MFC: Table 5, minimal (CD) medium, crude peptides, up to 32 μg/ml; for MIC: spores, 96 h; for MBC/MFC: spotted on PD plate 24~72 h; for antimicrobial activity: at the highest peptide concentration (32μg/ml) tested, data not shown, before the tests in minimal media
Cgl FST02 = settings: for MIC / MBC/MFC: Table 5, minimal (CD) medium, crude peptides, up to 32 μg/ml; for MIC: spores, 96 h; for MBC/MFC: spotted on PD plate 24~72 h; for antimicrobial activity: at the highest peptide concentration (32μg/ml) tested, data not shown, before the tests in minimal media
Xcc Xcc17 = format: cell-based, Xanthomonas campestris pv. campestris; settings: rich medium, HPLC-purified peptides, peptide 0, 2, 10, 20 μg/ml, 24 h, OD600; lowest concentration inhibiting 50% of growth
Xoo Xoo28 [9] = format: cell-based, Xanthomonas oryzae pv. oryzae; settings: rich medium, HPLC-purified peptides, peptide 0, 2, 10, 20 μg/ml, 24 h, OD600; lowest concentration inhibiting 50% of growth
Atu C58C1 = format: cell-based, Agrobacterium tumefaciens; settings: rich medium, HPLC-purified peptides, peptide 0, 2, 10, 20 μg/ml, 24 h, OD600; lowest concentration inhibiting 50% of growth
[10] = Circular dichroism, secondary structure deconvolution; format: physicochemical; settings: CD, dissolved in water, structural deconvolution
Description: The peptides were dissolved in water to make a stock solution and then diluted in the solution that contained different concentrations of trifluoroethanol (TFE) to the desired final TFE concentration. The circular dichroism (CD) spectra between 190 and 250nm were recorded on a J-815 CD spectrometer (JASCO, Japan). The bandwidth was 2nm, and the step resolution was 0.05nm. Each sample was scanned twice, and the average of the two measurements was smoothed using the Savitzky-Golay method to get the final CD spectrum. The CD spectra were deconvoluted using the CD Multivariate SSE software version 2.0.1 (JASCO, Japan).

Eco DH5α [11] = tested on: Eco DH5α
Xev Xvt28 [12] = tested on: Xev Xvt28
[13] = Table 4, rich medium, 48 h, no visible growth
[14] = Table 5, minimal medium, crude peptides, 96 h
[15] = Table 5, minimal medium, crude peptides, spotted on rich agar 48 h
[16] = Table 7, rich media, spotted on rich agar 48 h

| Substance | antimicrobial activity [1] | membranolytic effect (SYTOX Green staining) (Eco) | membranolytic effect (SYTOX Green staining) (Rs) | size of disease lesions caused by Pcc, tomato [2] | size of disease lesions caused by Pcc, Arabidopsis [3] | development of the lesion caused by Bc, tomato (Botrytis cinerea (Bc) [4]) | development of the lesion caused by Bc, Arabidopsis (Botrytis cinerea (Bc) [5]) | MBC (Eco DH5α [6]) [µg/mL] | MBC (Xev Xvt28 [7]) [µg/mL] | MIC (Xev Xvt28 [7]) [µg/mL] | MIC (Xoo Xoo28 [8]) [µg/mL] | MBC (Xoo Xoo28 [8]) [µg/mL] | MIC (Pcc; [13]) [µg/mL] | MIC (Pcc; [14]) [µg/mL] | MBC/MFC (Pcc; [15]) [µg/mL] | MIC (Pst DC3000) [µg/mL] | MBC (Pst DC3000) [µg/mL] | MIC (Pss B728a) [µg/mL] | MBC (Pss B728a) [µg/mL] | MIC (Ech; [14]) [µg/mL] | further results |
| --- | --- | --- | --- | --- | --- | --- | --- | --- | --- | --- | --- | --- | --- | --- | --- | --- | --- | --- | --- | --- | --- |
| Ac-WKKLKKLLKKLKKL-NH2 [pepD2] | did not have detectable antimicrobial activity | significant membranolytic effect | significant membranolytic effect | did not detectably inhibit the diseases | did not detectably inhibit the diseases | did not detectably inhibit the diseases | did not detectably inhibit the diseases | 8 | 4 | 4 | 4 | 8 | 8 | 8 | 8 | 4 | 8 | 8 | 16 | 16 | Plant response to infection with Pcc, Tomato (class and significance; number of batches in parentheses) ([2]; crude peptide 16 µg/mL, lesion diameter 16–28 h post-inoculation, Student's t-test vs water-treated): ns(3); Plant response to infection with Bc, Arabidopsis (class and significance; number of batches in parentheses) (Botrytis cinerea (Bc) [5]; crude peptide 16 µg/mL, lesion diameter 47–70 h post-inoculation, Student's t-test vs water-treated): ns(2 ); MIC (Pcc; Table 7, rich media, 48 h): 4 µg/mL; MBC (Pcc; [16]): 8 µg/mL; MBC/MFC (Ech; [15]): 16 µg/mL; MIC (Ech; Table 7, rich media, 48 h): 32 µg/mL; MBC (Ech; [16]): 32 µg/mL; MIC (Rs Pss4): – (“–” indicates that no antimicrobial activity was detected in minimal media at the highest concentration (32μg/ml) of crude peptides that was tested in this study.); MBC/MFC (Rs Pss4): – (“–” indicates that no antimicrobial activity was detected in minimal media at the highest concentration (32μg/ml) of crude peptides that was tested in this study.); MIC (Rs Pss190): – (“–” indicates that no antimicrobial activity was detected in minimal media at the highest concentration (32μg/ml) of crude peptides that was tested in this study.); MBC/MFC (Rs Pss190): – (“–” indicates that no antimicrobial activity was detected in minimal media at the highest concentration (32μg/ml) of crude peptides that was tested in this study.); MIC (Bc): – (“–” indicates that no antimicrobial activity was detected in minimal media at the highest concentration (32μg/ml) of crude peptides that was tested in this study.); MBC/MFC (Bc): – (“–” indicates that no antimicrobial activity was detected in minimal media at the highest concentration (32μg/ml) of crude peptides that was tested in this study.); antimicrobial activity (Bc): did not have detectable antimicrobial activity; MIC (Cgl FST02): – (“–” indicates that no antimicrobial activity was detected in minimal media at the highest concentration (32μg/ml) of crude peptides that was tested in this study.); MBC/MFC (Cgl FST02): – (“–” indicates that no antimicrobial activity was detected in minimal media at the highest concentration (32μg/ml) of crude peptides that was tested in this study.); antimicrobial activity (Cgl FST02): did not have detectable antimicrobial activity |
| Ac-WKKLKKLLKKL-NH2 [pepD3] | did not have detectable antimicrobial activity | significant membranolytic effect | significant membranolytic effect | did not detectably inhibit the diseases | did not detectably inhibit the diseases | did not detectably inhibit the diseases | did not detectably inhibit the diseases | 16 | 4 | 4 | 4 | 4 | 8 | 8 | 16 | 8 | 16 | 8 | 16 | 32 | MIC (Eco DH5α [6]): 8 µg/mL; MIC (Rs Pss4): – (“–” indicates that no antimicrobial activity was detected in minimal media at the highest concentration (32μg/ml) of crude peptides that was tested in this study.); MBC/MFC (Rs Pss4): – (“–” indicates that no antimicrobial activity was detected in minimal media at the highest concentration (32μg/ml) of crude peptides that was tested in this study.); MIC (Rs Pss190): – (“–” indicates that no antimicrobial activity was detected in minimal media at the highest concentration (32μg/ml) of crude peptides that was tested in this study.); MBC/MFC (Rs Pss190): – (“–” indicates that no antimicrobial activity was detected in minimal media at the highest concentration (32μg/ml) of crude peptides that was tested in this study.); MIC (Bc): – (“–” indicates that no antimicrobial activity was detected in minimal media at the highest concentration (32μg/ml) of crude peptides that was tested in this study.); MBC/MFC (Bc): – (“–” indicates that no antimicrobial activity was detected in minimal media at the highest concentration (32μg/ml) of crude peptides that was tested in this study.); antimicrobial activity (Bc): did not have detectable antimicrobial activity; MIC (Cgl FST02): – (“–” indicates that no antimicrobial activity was detected in minimal media at the highest concentration (32μg/ml) of crude peptides that was tested in this study.); MBC/MFC (Cgl FST02): – (“–” indicates that no antimicrobial activity was detected in minimal media at the highest concentration (32μg/ml) of crude peptides that was tested in this study.); antimicrobial activity (Cgl FST02): did not have detectable antimicrobial activity |
| Ac-WKLLKLLLKLLKLLLKLL-NH2 [pepA] | – | – | – | – | – | – | – | – | – | – | – | – | – | – | – | – | – | – | – | – | IC50 (Xcc Xcc17): – (“–” indicates that no antimicrobial activity was detected in rich media at the highest peptide concentration (20μg/ml) that was tested in this study.); IC50 (Xoo Xoo28 [9]): – (“–” indicates that no antimicrobial activity was detected in rich media at the highest peptide concentration (20μg/ml) that was tested in this study.); IC50 (Atu C58C1): – (“–” indicates that no antimicrobial activity was detected in rich media at the highest peptide concentration (20μg/ml) that was tested in this study.); α-helix content [10]: over 90%; IC50 (Eco DH5α [11]): – (key: “–” indicates that no antimicrobial activity was detected in rich media at the highest peptide concentration (20μg/ml) that was tested in this study.); IC50 (Xev Xvt28 [12]): – (key: “–” indicates that no antimicrobial activity was detected in rich media at the highest peptide concentration (20μg/ml) that was tested in this study.) |
